Data on 13 compounds can be found in patent US9084818B2, “Topical dermal delivery compositions using self assembling nanoparticles with cetylated components” (CYMBIOTICS, INC., priority 2013, dated 2015).

The nature of data set [1]: Minimum HLB needed for cetosome formation. Particulars: surfactant HLB requirement to solubilize and stabilize within the cetosome. It counts as physicochemical. As for the experimental part: Core components are also chosen with melting points between 40° to 75° C. This allows for thermal dissociation into the oil phase and strong affinity re-association as the temperature is reduced.

A short description of data set [2]: Pre-clinical pharmacokinetic feasibility study of oxybutynin cream on shaved rabbit backs. The class given is in vivo, rabbits. On the procedure:
Two levels of oxybutynin hydrochloride for use in the study were incorporated into the composition matrix: 5 mg/gm and 0.5 mg/ml. Three rabbits were chosen for each dosing. Animal backs were shaved were shaved 24 hrs prior to application. One gram was applied to the shaved area and rubbed in. This was covered by non-absorbent dressing. One milliliter of blood was collected from a marginal ear vein at baseline, 15 minutes, 1 hr, 6 hrs, 12 hrs and 24 hrs following dosing. Heparin was used as anticoagulant. Extracted samples were analyzed using an LC/MS-MS spectrometer (API 3000) with diazepam as an internal standard. Mobile phase was a 50:40:10 mixture (methanol:acetonitrile: 10 mM ammonium formate). The column used was a Phenomenex, Luna C18, 150×4.6 mm, 5 micron. Temperature for analysis was 30° C. with a flow rate of 1.0 ml/min with splitter with detection using ESI positive ion. Both oxybutynin and N-desethyl-oxybutynin were analyzed. N-desethyl-oxybutynin (DES) is a metabolite of oxybutynin considered to be associated with adverse secondary side effects.

Setting [3] is: rabbit, in vivo, topical or ocular, 5 mg.
Where [4] appears, read: Cream, 0.5 mg/ml, one gram topical, rabbit plasma, mean.

As for `CCCCCCCCCCCCCCCCO` [Cetyl Alcohol], the “MINIMUM HLB NEEDED FOR CETOSOME FORMATION” value in data set [1] is on record as 15.5.
Consider `CCCCCCCCCCCCCCCCOC(=O)CCCCCCCCC` [Cetyl Decanoate], for which the melting point fell in the range of 40 to 44 °C. The “MINIMUM HLB NEEDED FOR CETOSOME FORMATION” value in data set [1] stood at 10.
The like results for `CCCCCCCCCCCCCCCCOC(=O)CCCCCCCCCCC` [Cetyl Laurate] were, in that order, 43 to 45 °C and 10.
The corresponding values for `CCCCCCCCCCCCCCCCOC(=O)CCCCCCCCCCCCC` [Cetyl Myristate] are 45 to 48 °C and 10.
The corresponding values for `CCCCCCCCCCCCCCCCOC(=O)CCCCCCC` [Cetyl Octanoate] are 52 to 60 °C and 10.
Consider `CCCCCCCC/C=C\CCCCCCCC(=O)OCCCCCCCCCCCCCCCC` [Cetyl Oleate], for which the melting point fell in the range of 58 to 60 °C. Also, in data set [1], the “MINIMUM HLB NEEDED FOR CETOSOME FORMATION” value came out at 10.
For `CCCCCCCCCCCCCCCCOC(=O)CCCCCCCCCCCCCCC` [Cetyl Palmitate], the “MINIMUM HLB NEEDED FOR CETOSOME FORMATION” value in data set [1] worked out at 10.
Turning to `CCCCCC/C=C\CCCCCCCC(=O)OCCCCCCCCCCCCCCCC` [Cetyl Palmitoleate], the melting point fell in the range of 45 to 52 °C. The “MINIMUM HLB NEEDED FOR CETOSOME FORMATION” value in data set [1] was 10.
The like results for `CCCCCCCCCCCCCCCCCC(=O)OCCCCCCCCCCCCCCCC` [Cetyl Stearate] were, in that order, 62 to 70 °C and 10.
With `CCNCC#CCOC(=O)C(O)(c1ccccc1)C1CCCCC1` (stereo not shown) [DES, N-desethyl-oxybutynin], the “detection of the metabolite in plasma during the 24 hour period” value in data set [2] (either level of dose application) is on record as “not detectable”. Besides, in data set [2] (rabbit, in vivo, topical or ocular), the Tmax is less than 0.5 h.
Turning to `CCN(CC)CC#CCOC(=O)C(O)(c1ccccc1)C1CCCCC1` (stereo not shown) [Oxybutynin, oxybutynin], in data set [2] (setting [3]), the AUC(0-t) was found to be 22 ng·h/mL, the Cmax was determined as 9.33 ng/mL and the time to peak (Tmax) was 6 h.
With Cetyl Isomyristate, the “MINIMUM HLB NEEDED FOR CETOSOME FORMATION” value in data set [1] is 10.
For the compound oxybutynin, in data set [2] (setting [4]), the “AUC 0-24 hr” value worked out at 2.512 ng·h/mL, the Cmax amounted to 0.836 ng/mL and the Tmax was determined as 12 h.

A word on the melting point: it is the temperature, or range, at which the solid turns liquid. One may read the Tmax as the time from dosing to the highest level. In general, AUC(0-t) refers to the area under the concentration-time curve up to a stated or last time point. For orientation: Cmax means the maximum level reached in the sampled fluid or tissue.
